Measured values taken from patent publication US9586961B2, “Homopiperazine derivatives as protein tyrosine kinase inhibitors and pharmaceutical use thereof” (LEO PHARMA A/S, priority 2010, dated 2017).

Key:
Type in all cases: biochemical
JAK3 = biological target: T1, JAK3 (Homo sapiens, UniProt P52333); assay: JAK3 kinase assay (HTRF, inhibition of phosphorylation of a synthetic peptide); settings: catalytic domain, His-tag; 2 μM ATP (Km); read-out: JAK3 kinase inhibitory activity (EC50)
T1 construct: All four purified enzymes contain only the catalytic domain; His (N); purchased Carna Biosciences, Inc; host or cells: baculovirus expression system
T1 sequence (P52333 822-1111 limits assumed): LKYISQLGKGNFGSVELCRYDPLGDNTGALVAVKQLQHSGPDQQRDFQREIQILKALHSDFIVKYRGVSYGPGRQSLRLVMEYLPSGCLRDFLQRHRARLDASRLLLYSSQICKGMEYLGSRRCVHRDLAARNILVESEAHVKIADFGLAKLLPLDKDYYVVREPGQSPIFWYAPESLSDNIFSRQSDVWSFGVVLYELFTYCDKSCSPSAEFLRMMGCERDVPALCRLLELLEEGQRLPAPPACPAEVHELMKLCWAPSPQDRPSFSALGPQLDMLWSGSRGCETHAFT
Protocol: (§1) JAK1, JAK2, JAK3 and TYK2 Kinase Assays:
(§2) Human baculovirus-expressed JAK1, 2, 3 and TYK2 were purchased from Carna Biosciences, Inc. All four purified enzymes contain only the catalytic domain. JAK1 (aa 850-1154) and TYK2 (aa 871-1187) are expressed with an N-terminally fused GST-tag, and JAK2 and JAK3 with an N-terminally fused His-tag. Inhibition of phosphorylation of a synthetic peptide was measured in an HTRF-based assay using the TK substrate-Biotin from the CisbioHTRFKinEASE TK kit. First, 2 μl of TK solution (TK substrate-biotin in kinase buffer [1× enzymatic buffer from HTRFKinEASE TK kit, 1 mM DTT]) is added to a plate containing 1 μl prediluted compound (final assay concentration DMSO: 0.75%). Then, 5 μl kinase-ATP mix (prepared in kinase buffer) is added to the wells and the plates are incubated at RT for 20-30 min. For all four kinases a concentration of ATP that corresponded to the Km for ATP was used. The final concentrations of buffers, substrate, kinase and ATP were: JAK1: 50 mMHepes buffer pH 7.0, 0.01% BSA, 10 mM MgCl2, 1 mM DTT, 7 μM ATP, 50 nMSEB, 1 μM TK Substrate-Biotin and 5 ng JAK1; JAK2: 50 mM Hepes buffer pH 7.0, 0.01% BSA, 5 mM MgCl2, 1 mM DTT, 4 μM ATP, 1 μM TK Substrate-Biotin and 0.1 ng JAK2; JAK3: 50 mMHepes buffer pH 7.0, 0.01% BSA, 5 mM MgCl2, 1 mM DTT, 2 μM ATP, 1 μM TK Substrate-Biotin and 0.3 ng JAK3; TYK2: 50 mMHepes buffer pH 7.0, 0.01% BSA, 5 mM MgCl2, 1 mM DTT, 13 μM ATP, 50 nMSEB, 1 μM TK Substrate-Biotin and 0.8 ng TYK2. Thereafter, the kinase reaction is stopped by adding 4 μl detection mix (final concentrations: 50 mM Hepes buffer pH 7.0, 0.01% BSA, 0.8 M KF, 20 mM EDTA, 42 nM Streptavidin-XL665 and 1:400 STKAbCryptate) and the plates are incubated overnight in the dark. The HTRF signal is read using an Envision plate reader.

JAK2 = biological target: T2, JAK2 (Homo sapiens, UniProt O60674); assay: JAK2 kinase assay (HTRF, inhibition of phosphorylation of a synthetic peptide); settings: catalytic domain, His-tag; 4 μM ATP (Km); read-out: JAK2 kinase inhibitory activity (EC50)
T2 construct: All four purified enzymes contain only the catalytic domain; His (N); purchased Carna Biosciences, Inc; host or cells: baculovirus expression system
T2 sequence (O60674 849-1124 limits assumed): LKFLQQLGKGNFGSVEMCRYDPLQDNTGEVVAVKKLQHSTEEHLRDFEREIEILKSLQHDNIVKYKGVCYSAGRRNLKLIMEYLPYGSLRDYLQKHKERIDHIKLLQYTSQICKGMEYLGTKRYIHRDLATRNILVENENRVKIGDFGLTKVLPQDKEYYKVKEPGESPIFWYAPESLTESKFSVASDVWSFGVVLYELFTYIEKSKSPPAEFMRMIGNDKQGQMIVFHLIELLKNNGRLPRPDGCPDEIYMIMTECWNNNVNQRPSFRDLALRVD
Protocol: as §1, §2

JAK1 = biological target: T3, JAK1 (Homo sapiens, UniProt P23458); assay: JAK1 kinase assay (HTRF, inhibition of phosphorylation of a synthetic peptide); settings: catalytic domain aa 850-1154, GST-tag; 7 μM ATP (Km); read-out: JAK1 kinase inhibitory activity (EC50)
T3 construct: JAK1 (aa 850-1154) and TYK2 (aa 871-1187) are expressed with an N-terminally fused GST-tag; GST (N); purchased Carna Biosciences, Inc; host or cells: baculovirus expression system
T3 sequence (P23458 850-1154): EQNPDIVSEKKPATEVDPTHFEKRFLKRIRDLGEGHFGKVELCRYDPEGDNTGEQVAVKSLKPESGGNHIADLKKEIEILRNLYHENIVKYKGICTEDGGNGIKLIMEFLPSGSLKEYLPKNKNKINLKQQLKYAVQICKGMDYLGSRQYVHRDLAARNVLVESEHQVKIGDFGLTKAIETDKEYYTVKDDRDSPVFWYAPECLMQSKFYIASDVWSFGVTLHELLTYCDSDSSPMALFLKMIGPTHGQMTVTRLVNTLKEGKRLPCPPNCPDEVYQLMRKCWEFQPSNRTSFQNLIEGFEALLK
Protocol: as §1, §2

## O=C(CN1C(=O)CSC1=O)N1CCN(c2ncnc3[nH]ccc23)CC2(CC2)C1 [Example 79, 3-[2-oxo-2-[5-(7H-pyrrolo[2,3-d]pyrimidin-4-yl)-5,8-diazaspiro[2.6]nonan-8-yl]ethyl]thiazolidine-2,4-dione]
JAK3
  EC50: < 100 nM
JAK2
  EC50: < 100 nM
JAK1
  EC50: < 100 nM

## CN1CC(=O)N(CC(=O)N2CCN(c3ncnc4[nH]ccc34)CC3(CC3)C2)C1=O [Example 80, 1-methyl-3-[2-oxo-2-[5-(7H-pyrrolo[2,3-d]pyrimidin-4-yl)-5,8-diazaspiro[2.6]nonan-8-yl]ethyl]imidazolidine-2,4-dione]
JAK3
  EC50: 100 to 1000 nM
JAK2
  EC50: < 100 nM
JAK1
  EC50: 100 to 1000 nM

## O=C(CN1CCOC1=O)N1CCN(c2ncnc3[nH]ccc23)CC2(CC2)C1 [Example 81, 3-[2-oxo-2-[5-(7H-pyrrolo[2,3-d]pyrimidin-4-yl)-5,8-diazaspiro[2.6]nonan-8-yl]ethyl]oxazolidin-2-one]
JAK3
  EC50: 100 to 1000 nM
JAK2
  EC50: 100 to 1000 nM
JAK1
  EC50: 100 to 1000 nM

## CN1CCN(CC(=O)N2CCN(c3ncnc4[nH]ccc34)CC3(CC3)C2)C1=O [Example 82, 1-methyl-3-[2-oxo-2-[5-(7H-pyrrolo[2,3-d]pyrimidin-4-yl)-5,8-diazaspiro[2.6]nonan-8-yl]ethyl]imidazolidin-2-one]
JAK3
  EC50: 100 to 1000 nM
JAK2
  EC50: 100 to 1000 nM
JAK1
  EC50: 100 to 1000 nM

## CN1CCN(CC(=O)N2CCCN(c3ncnc4[nH]ccc34)CC23CC3)C1=O [Example 83, 1-methyl-3-[2-oxo-2-[5-(7H-pyrrolo[2,3-d]pyrimidin-4-yl)-5,9-diazaspiro[2.6]nonan-9-yl]ethyl]imidazolidin-2-one]
JAK3
  EC50: 100 to 1000 nM
JAK2
  EC50: 100 to 1000 nM
JAK1
  EC50: 100 to 1000 nM

## O=C1CCC(=O)N1CC(=O)N1CCCN(c2ncnc3[nH]ccc23)CC12CC2 [Example 84, 1-[2-oxo-2-[5-(7H-pyrrolo[2,3-d]pyrimidin-4-yl)-5,9-diazaspiro[2.6]nonan-9-yl]ethyl]pyrrolidine-2,5-dione]
JAK3
  EC50: 100 to 1000 nM
JAK2
  EC50: 100 to 1000 nM
JAK1
  EC50: 100 to 1000 nM

## O=C1CSC(=O)N1CC(=O)N1CCCN(c2ncnc3[nH]ccc23)CC12CC2 [Example 85, 3-[2-oxo-2-[5-(7H-pyrrolo[2,3-d]pyrimidin-4-yl)-5,9-diazaspiro[2.6]nonan-9-yl]ethyl]thiazolidine-2,4-dione]
JAK3
  EC50: 100 to 1000 nM
JAK2
  EC50: 100 to 1000 nM
JAK1
  EC50: 100 to 1000 nM

## O=C1OCCN1CC(=O)N1CCCN(c2ncnc3[nH]ccc23)CC12CC2 [Example 86, 3-[2-oxo-2-[5-(7H-pyrrolo[2,3-d]pyrimidin-4-yl)-5,9-diazaspiro[2.6]nonan-9-yl]ethyl]oxazolidin-2-one]
JAK3
  EC50: > 1000 nM
JAK2
  EC50: 100 to 1000 nM
JAK1
  EC50: > 1000 nM

## O=C(Cc1cscn1)N1CCN(c2ncnc3[nH]ccc23)CC2(CC2)C1 [Example 88, 1-[5-(7H-pyrrolo[2,3-d]pyrimidin-4-yl)-5,8-diazaspiro[2.6]nonan-8-yl]-2-thiazol-4-yl-ethanone]
JAK3
  EC50: 100 to 1000 nM
JAK2
  EC50: 100 to 1000 nM
JAK1
  EC50: 100 to 1000 nM

## O=C(Cc1cnc[nH]1)N1CCN(c2ncnc3[nH]ccc23)CC2(CC2)C1 [Example 89, 2-(1H-imidazol-5-yl)-1-[5-(7H-pyrrolo[2,3-d]pyrimidin-4-yl)-5,8-diazaspiro[2.6]nonan-8-yl]ethanone]
JAK3
  EC50: 100 to 1000 nM
JAK2
  EC50: 100 to 1000 nM
JAK1
  EC50: 100 to 1000 nM

## Cc1ccc(S(=O)(=O)N2CCN(c3ncnc4[nH]ccc34)CC3(CC3)C2)cc1 [Example 96, 4-[8-(p-tolylsulfonyl)-5,8-diazaspiro[2.6]nonan-5-yl]-7H-pyrrolo[2,3-d]pyrimidine]
JAK3
  EC50: > 1000 nM
JAK2
  EC50: 100 to 1000 nM
JAK1
  EC50: 100 to 1000 nM

## Cc1oncc1C(=O)N1CCN(c2ncnc3[nH]ccc23)CC2(CC2)C1 [Example 108, (5-methylisoxazol-4-yl)-[5-(7H-pyrrolo[2,3-d]pyrimidin-4-yl)-5,8-diazaspiro[2.6]nonan-8-yl]methanone]
JAK3
  EC50: 100 to 1000 nM
JAK2
  EC50: 100 to 1000 nM
JAK1
  EC50: 100 to 1000 nM

## Cc1ccccc1C(=O)N1CCN(c2ncnc3[nH]ccc23)CC2(CC2)C1 [Example 109, o-tolyl-[5-(7H-pyrrolo[2,3-d]pyrimidin-4-yl)-5,8-diazaspiro[2.6]nonan-8-yl]methanone]
JAK3
  EC50: > 1000 nM
JAK2
  EC50: 100 to 1000 nM
JAK1
  EC50: > 1000 nM

## Cc1ccccc1C(=O)N1CCCN(c2ncnc3[nH]ccc23)CC12CC2 [Example 110, o-tolyl-[5-(7H-pyrrolo[2,3-d]pyrimidin-4-yl)-5,9-diazaspiro[2.6]nonan-9-yl]methanone]
JAK3
  EC50: > 1000 nM
JAK2
  EC50: 100 to 1000 nM
JAK1
  EC50: 100 to 1000 nM

## O=C(c1ccccc1F)N1CCN(c2ncnc3[nH]ccc23)CC2(CC2)C1 [Example 111, (2-fluorophenyl)-[5-(7H-pyrrolo[2,3-d]pyrimidin-4-yl)-5,8-diazaspiro[2.6]nonan-8-yl]methanone]
JAK3
  EC50: > 1000 nM
JAK2
  EC50: < 100 nM
JAK1
  EC50: 100 to 1000 nM

## O=C(c1ccccc1F)N1CCCN(c2ncnc3[nH]ccc23)CC12CC2 [Example 112, (2-fluorophenyl)-[5-(7H-pyrrolo[2,3-d]pyrimidin-4-yl)-5,9-diazaspiro[2.6]nonan-9-yl]methanone]
JAK3
  EC50: 100 to 1000 nM
JAK2
  EC50: < 100 nM
JAK1
  EC50: 100 to 1000 nM

## O=C(c1ccc(F)cc1)N1CCN(c2ncnc3[nH]ccc23)CC2(CC2)C1 [Example 113, (4-fluorophenyl)-[5-(7H-pyrrolo[2,3-d]pyrimidin-4-yl)-5,8-diazaspiro[2.6]nonan-8-yl]methanone]
JAK3
  EC50: 100 to 1000 nM
JAK2
  EC50: 100 to 1000 nM
JAK1
  EC50: 100 to 1000 nM

## O=C(c1ccc(F)cc1)N1CCCN(c2ncnc3[nH]ccc23)CC12CC2 [Example 114, (4-fluorophenyl)-[5-(7H-pyrrolo[2,3-d]pyrimidin-4-yl)-5,9-diazaspiro[2.6]nonan-9-yl]methanone]
JAK3
  EC50: 100 to 1000 nM
JAK2
  EC50: < 100 nM
JAK1
  EC50: 100 to 1000 nM

## N#Cc1ccc(/C=C/C(=O)N2CCN(c3ncnc4[nH]ccc34)CC3(CC3)C2)cc1 [Example 117, 4-[(E)-3-oxo-3-[5-(7H-pyrrolo[2,3-d]pyrimidin-4-yl)-5,8-diazaspiro[2.6]nonan-8-yl]prop-1-enyl]benzonitrile]
JAK2
  EC50: 100 to 1000 nM
JAK1
  EC50: 100 to 1000 nM

## N#Cc1cccc(OCC(=O)N2CCN(c3ncnc4[nH]ccc34)CC3(CC3)C2)c1 [Example 118, 3-[2-oxo-2-[5-(7H-pyrrolo[2,3-d]pyrimidin-4-yl)-5,8-diazaspiro[2.6]nonan-8-yl]ethoxy]benzonitrile]
JAK3
  EC50: 100 to 1000 nM
JAK2
  EC50: < 100 nM
JAK1
  EC50: 100 to 1000 nM

## O=C(c1cnon1)N1CCCN(c2ncnc3[nH]ccc23)CC12CC2 [Example 121, 1,2,5-oxadiazol-3-yl-[5-(7H-pyrrolo[2,3-d]pyrimidin-4-yl)-5,9-diazaspiro[2.6]nonan-9-yl]methanone]
JAK3
  EC50: < 100 nM
JAK2
  EC50: 100 to 1000 nM
JAK1
  EC50: 100 to 1000 nM

## Cc1cc(C(=O)N2CCCN(c3ncnc4[nH]ccc34)CC23CC3)on1 [Example 122, (3-methylisoxazol-5-yl)-[5-(7H-pyrrolo[2,3-d]pyrimidin-4-yl)-5,9-diazaspiro[2.6]nonan-9-yl]methanone]
JAK3
  EC50: 100 to 1000 nM
JAK2
  EC50: < 100 nM
JAK1
  EC50: < 100 nM

## CCCC1=NOC(C(=O)N2CCCN(c3ncnc4[nH]ccc34)CC23CC3)C1 (centres unmarked) [Example 124, (3-propyl-4,5-dihydroisoxazol-5-yl)-[5-(7H-pyrrolo[2,3-d]pyrimidin-4-yl)-5,9-diazaspiro[2.6]nonan-9-yl]methanone]
JAK3
  EC50: 100 to 1000 nM
JAK2
  EC50: 100 to 1000 nM
JAK1
  EC50: 100 to 1000 nM

## O=C(Cc1ccc(Cl)cc1)N1CCCN(c2ncnc3[nH]ccc23)CC12CC2 [Example 126, 2-(4-chlorophenyl)-1-[5-(7H-pyrrolo[2,3-d]pyrimidin-4-yl)-5,9-diazaspiro[2.6]nonan-9-yl]ethanone]
JAK3
  EC50: 100 to 1000 nM
JAK2
  EC50: < 100 nM
JAK1
  EC50: 100 to 1000 nM

## O=C(c1cccnc1)N1CCN(c2ncnc3[nH]ccc23)CC2(CC2)C1 [Example 127, 3-pyridyl-[5-(7H-pyrrolo[2,3-d]pyrimidin-4-yl)-5,8-diazaspiro[2.6]nonan-8-yl]methanone]
JAK3
  EC50: > 1000 nM
JAK2
  EC50: 100 to 1000 nM
JAK1
  EC50: 100 to 1000 nM
